Consider 29 molecules from US10501460B2, “Heterocyclic compounds and uses thereof” (Plexxikon Inc., priority 2013, dated 2019).

Molecules are shown by their SMILES.

In one experiment the test system is MV-4-11. As to the kind of experiment: Oncology cell growth assay MV-4-11 (CellTiter Glo, 72 hours). It counts as cell-based. The note with it: Homo sapiens, MV4-11, 72 h; MV-4-11 cell growth inhibitory activity, 3d. The method, boiled down: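 Growth read by CellTiter Glo luminescence after 72 h compound exposure of MV-4-11 AML cells (MLL-AF4), using 8-point 1:3 series to 10 μM final in 0.2% DMSO. Data normalized to DMSO wells, four-parameter fit yields pIC50.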
(Cellular ATP, detected with luciferase, serves as a proxy for viable cell number.)

The next experiment deals with bromodomain. As to the kind of experiment: Bromodomain cell assays of Example 40 (at least one of them). It counts as cell-based. Conditions: in at least one of the bromodomain cell assays described in Example 40. The method, boiled down: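 Growth inhibition: 3000 MV-4-11, MOLM-13, MM.1S or neuroblastoma cells/well got an 8-point 1:3 series from 10 μM top (0.2% DMSO) for 72 h, then CellTiter-Glo luminescence. Myc reporter: MV-4-11 with E-box firefly luciferase, 24 h exposure, One-Glo luminescence plus CellTiter-Fluo cell count. pIC50 from four-parameter fit.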

Take `COCCn1cc(-c2cn(S(=O)(=O)c3ccccc3)c3cc(-c4c(C)noc4C)cnc23)cn1` [P-0147, 4-[1-(benzenesulfonyl)-3-[1-(2-methoxyethyl)pyrazol-4-yl]pyrrolo[3,2-b]pyridin-6-yl]-3,5-dimethyl-isoxazole]: the results for the IC50 with MV-4-11 and in the experiment on bromodomain were at most 1 µM and under 10 µM, respectively.
Taken in the same sequence, the figures for `Cc1noc(C)c1-c1cnc2c(-c3cnn(C4CCOC4)c3)cn(S(=O)(=O)c3ccccc3)c2c1` (stereo not shown) [P-0148, 4-[1-(benzenesulfonyl)-3-(1-tetrahydrofuran-3-ylpyrazol-4-yl)pyrrolo[3,2-b]pyridin-6-yl]-3,5-dimethyl-isoxazole] were at most 1 µM and under 10 µM.
Taken in the same sequence, the figures for `Cc1noc(C)c1-c1cnc2c(-c3cnn(CC(F)(F)F)c3)cn(S(=O)(=O)C3CCCC3)c2c1` [P-0149, 4-[1-cyclopentylsulfonyl-3-[1-(2,2,2-trifluoroethyl)pyrazol-4-yl]pyrrolo[3,2-b]pyridin-6-yl]-3,5-dimethyl-isoxazole] were at most 1 µM and under 10 µM.
Taken in the same sequence, the figures for `CCCS(=O)(=O)n1cc(-c2cnn(CC(F)(F)F)c2)c2ncc(-c3c(C)noc3C)cc21` [P-0150, 3,5-dimethyl-4-[1-propylsulfonyl-3-[1-(2,2,2-trifluoroethyl)pyrazol-4-yl]pyrrolo[3,2-b]pyridin-6-yl]isoxazole] were at most 1 µM and under 10 µM.
For the molecule `COCCn1cc(-c2cn(S(=O)(=O)C3CCCC3)c3cc(-c4c(C)noc4C)cnc23)cn1` [P-0151, 4-[1-cyclopentylsulfonyl-3-[1-(2-methoxyethyl)pyrazol-4-yl]pyrrolo[3,2-b]pyridin-6-yl]-3,5-dimethyl-isoxazole], the half-maximal inhibitory concentration (IC50) in the experiment with MV-4-11 is at most 1 µM; in the experiment on bromodomain it was under 10 µM.
For `CCCS(=O)(=O)n1cc(-c2cnn(CCOC)c2)c2ncc(-c3c(C)noc3C)cc21` [P-0152, 4-[3-[l-(2-methoxyethyl)pyrazol-4-yl]-1-propylsulfonyl-pyrrolo [3,2-b]pyridin-6-yl]-3,5-dimethyl-isoxazole], in that order: at most 1 µM and under 10 µM.
In the case of `Cc1noc(C)c1-c1cnc2c(-c3cnn(C4CCOC4)c3)cn(S(=O)(=O)C3CCCC3)c2c1` (stereo not shown) [P-0153, 4-[1-cyclopentylsulfonyl-3-(1-tetrahydrofuran-3-ylpyrazol-4-yl)pyrrolo [3,2-b]pyridin-6-yl]-3,5-dimethyl-isoxazole], the figures for the IC50 in the experiment on MV-4-11 and in the experiment with bromodomain were at most 1 µM and under 10 µM, respectively.
On to `CCCS(=O)(=O)n1cc(-c2cnn(C3CCOC3)c2)c2ncc(-c3c(C)noc3C)cc21` (stereo not shown) [P-0154, 3,5-dimethyl-4-[1-propylsulfonyl-3-(1-tetrahydrofuran-3-ylpyrazol-4-yl)pyrrolo [3,2-b]pyridin-6-yl] isoxazole], for which the IC50 in the experiment on MV-4-11 was at most 1 µM; in the experiment on bromodomain, under 10 µM.
Taken in the same sequence, the figures for `Cc1noc(C)c1-c1cnc2c(C#CCO)cn(S(=O)(=O)C3CCCC3)c2c1` [P-0156, 3-[1-cyclopentylsulfonyl-6-(3,5-dimethylisoxazol-4-yl)pyrrolo[3,2-b]pyridin-3-yl]prop-2-yn-1-ol] were at most 1 µM and under 10 µM.
Taken in the same sequence, the figures for `Cc1noc(C)c1-c1cnc2c(C#CCF)cn(S(=O)(=O)C3CCCC3)c2c1` [P-0158, 4-[1-cyclopentylsulfonyl-3-(3-fluoroprop-1-ynyl)pyrrolo[3,2-b]pyridin-6-yl]-3,5-dimethyl-isoxazole] were at most 1 µM and under 10 µM.
Taken in the same sequence, the figures for `Cc1noc(C)c1-c1cnc2ccn(C(C)c3ccccc3)c2c1` (stereo not shown) [P-0159, 3,5-dimethyl-4-[1-(1-phenylethyl)pyrrolo[3,2-b]pyridin-6-yl]isoxazole] were at most 1 µM and under 10 µM.
Regarding `C=CCn1cc(-c2cn(Cc3ccccc3)c3cc(-c4c(C)noc4C)cnc23)cn1` [P-0160, 4-[3-(1-allylpyrazol-4-yl)-1-benzyl-pyrrolo[3,2-b]pyridin-6-yl]-3,5-dimethyl-isoxazole], the 50% inhibitory concentration (IC50) in the experiment with MV-4-11 is at most 1 µM; in the experiment on bromodomain, under 10 µM.
Take `Cc1noc(C)c1-c1cnc2c(-c3cnn(C)c3)cn(C(C)c3ccccc3)c2c1` (stereo not shown) [P-0161, 3,5-dimethyl-4-[3-(1-methylpyrazol-4-yl)-1-(1-phenylethyl)pyrrolo[3,2-b]pyridin-6-yl]isoxazole]: the IC50 with MV-4-11 was at most 1 µM; in the experiment with bromodomain it was under 10 µM.
Taken in the same sequence, the figures for `Cc1noc(C)c1-c1cnc2c(-c3cn[nH]c3)cn(S(=O)(=O)c3ccccc3)c2c1` [P-0163, 4-[1-(benzenesulfonyl)-3-(1H-pyrazol-4-yl)pyrrolo[3,2-b]pyridin-6-yl]-3,5-dimethyl-isoxazole] were at most 1 µM and under 10 µM.
As for `Cc1noc(C)c1-c1cnc2[nH]cc(P(C)(=O)c3ccccc3)c2c1` (stereo not shown) [P-0165, 3,5-dimethyl-4-[3-[methyl(phenyl)phosphoryl]-1H-pyrrolo[2,3-b]pyridin-5-yl]isoxazole], the values for the IC50 in the experiment on MV-4-11 and in the experiment with bromodomain were at most 1 µM and under 10 µM, respectively.
Taken in the same sequence, the figures for `Cc1noc(C)c1-c1cnc2c(-c3cn[nH]c3)cn(S(=O)(=O)C3CCCC3)c2c1` [P-0167, 4-[1-cyclopentylsulfonyl-3-(1H-pyrazol-4-yl)pyrrolo[3,2-b]pyridin-6-yl]-3,5-dimethyl-isoxazole] were at most 1 µM and under 10 µM.
As to `Cc1noc(C)c1-c1cnc2c(-c3cnn(C4CCCCO4)c3)cn(S(=O)(=O)c3ccccc3)c2c1` (stereo not shown) [P-0168, 4-[1-(benzenesulfonyl)-3-(1-tetrahydropyran-2-ylpyrazol-4-yl)pyrrolo[3,2-b]pyridin-6-yl]-3,5-dimethyl-isoxazole], the 50% inhibitory concentration (IC50) with MV-4-11 was at most 1 µM; in the experiment with bromodomain, under 10 µM.
For `Cc1nc(Cn2cc(-c3cnn(C)c3)c3ncc(-c4c(C)noc4C)cc32)cs1` [P-0170, 3,5-dimethyl-4-[3-(1-methylpyrazol-4-yl)-1-[(2-methylthiazol-4-yl)methyl]pyrrolo[3,2-b]pyridin-6-yl]isoxazole], in that order: at most 1 µM and under 10 µM.
For `Cc1noc(C)c1-c1cnc2c(-c3cnn(C)c3)cn(Cc3cscn3)c2c1` [P-0171, 3,5-dimethyl-4-[3-(1-methylpyrazol-4-yl)-1-(thiazol-4-ylmethyl)pyrrolo[3,2-b]pyridin-6-yl]isoxazole], in that order: at most 1 µM and under 10 µM.
Taken in the same sequence, the figures for `Cc1noc(C)c1-c1cnc2c(-c3cnn(C)c3)cn(Cc3ccccc3F)c2c1` [P-0172, 4-[1-[(2-fluorophenyl)methyl]-3-(1-methylpyrazol-4-yl)pyrrolo[3,2-b]pyridin-6-yl]-3,5-dimethyl-isoxazole] were at most 1 µM and under 10 µM.
In the case of `Cc1noc(C)c1-c1cnc2c(-c3cnn(C)c3)cn(Cc3c(F)cccc3F)c2c1` [P-0173, 4-[1-[(2,6-difluorophenyl)methyl]-3-(1-methylpyrazol-4-yl)pyrrolo[3,2-b]pyridin-6-yl]-3,5-dimethyl-isoxazole], the results for the IC50 with MV-4-11 and in the experiment on bromodomain were at most 1 µM and under 10 µM, respectively.
Taken in the same sequence, the figures for `Cc1noc(C)c1-c1cnc2c(-c3cnn(C(F)F)c3)cn(Cc3ccccc3F)c2c1` [P-0176, 4-[3-[1-(difluoromethyl)pyrazol-4-yl]-1-[(2-fluorophenyl)methyl]pyrrolo[3,2-b]pyridin-6-yl]-3,5-dimethyl-isoxazole] were at most 1 µM and under 10 µM.
For `Cc1noc(C)c1-c1cnc2c(c1)c(S(=O)(=O)c1ccccc1)cn2-c1cnn(C)c1` [P-0185, 4-[3-(benzenesulfonyl)-1-(1-methylpyrazol-4-yl)pyrrolo[2,3-b]pyridin-5-yl]-3,5-dimethyl-isoxazole], in that order: at most 1 µM and under 10 µM.
For `CCOC(=O)C(c1ccccc1)n1cc(-c2cnn(C)c2)c2ncc(-c3c(C)noc3C)cc21` (stereo not shown) [P-0186, ethyl 2-[6-(3,5-dimethylisoxazol-4-yl)-3-(1-methylpyrazol-4-yl)pyrrolo[3,2-b]pyridin-1-yl]-2-phenyl-acetate], in that order: at most 1 µM and under 10 µM.
On to `Cc1noc(C)c1-c1cnc2c(-c3cnn(C)c3)cn(C(CF)c3ccccc3)c2c1` (stereo not shown) [P-0187, 4-[1-(2-fluoro-1-phenyl-ethyl)-3-(1-methylpyrazol-4-yl)pyrrolo[3,2-b]pyridin-6-yl]-3,5-dimethyl-isoxazole], for which the IC50 in the experiment on MV-4-11 was at most 1 µM; in the experiment with bromodomain it was under 10 µM.
Taken in the same sequence, the figures for `Cc1noc(C)c1-c1cnc2c(-c3cnn(C)c3)cn(Cc3ccccc3C(F)(F)F)c2c1` [P-0188, 3,5-dimethyl-4-[3-(1-methylpyrazol-4-yl)-1-[[2-(trifluoromethyl)phenyl]methyl]pyrrolo[3,2-b]pyridin-6-yl]isoxazole] were at most 1 µM and under 10 µM.
Taken in the same sequence, the figures for `Cc1noc(C)c1-c1cnc2c(-c3cnn(C)c3)cn(Cc3c(Cl)cccc3Cl)c2c1` [P-0189, 4-[1-[(2,6-dichlorophenyl)methyl]-3-(1-methylpyrazol-4-yl)pyrrolo[3,2-b]pyridin-6-yl]-3,5-dimethyl-isoxazole] were at most 1 µM and under 10 µM.
Taken in the same sequence, the figures for `Cc1noc(C)c1-c1cnc2c(-c3cnn(C)c3)cn(Cc3cc(F)ccc3Cl)c2c1` [P-0190, 4-[1-[(2-chloro-5-fluoro-phenyl)methyl]-3-(1-methylpyrazol-4-yl)pyrrolo[3,2-b]pyridin-6-yl]-3,5-dimethyl-isoxazole] were at most 1 µM and under 10 µM.
On to `Cc1noc(C)c1-c1cnc2c(-c3cnn(C)c3)cn(C(CO)c3ccccc3)c2c1` (stereo not shown) [P-0192, 2-[6-(3,5-dimethylisoxazol-4-yl)-3-(1-methylpyrazol-4-yl)pyrrolo[3,2-b]pyridin-1-yl]-2-phenyl-ethanol], for which the IC50 with MV-4-11 is at most 1 µM; in the experiment on bromodomain, under 10 µM.

What is called IC50 is the point on the concentration scale where inhibition reaches its midpoint.
